The test addresses Telomerase reverse transcriptase (Homo sapiens, UniProt O14746). Description: Inhibition of telomerase (unknown origin).

Sequence of Telomerase reverse transcriptase (O14746 whole entry): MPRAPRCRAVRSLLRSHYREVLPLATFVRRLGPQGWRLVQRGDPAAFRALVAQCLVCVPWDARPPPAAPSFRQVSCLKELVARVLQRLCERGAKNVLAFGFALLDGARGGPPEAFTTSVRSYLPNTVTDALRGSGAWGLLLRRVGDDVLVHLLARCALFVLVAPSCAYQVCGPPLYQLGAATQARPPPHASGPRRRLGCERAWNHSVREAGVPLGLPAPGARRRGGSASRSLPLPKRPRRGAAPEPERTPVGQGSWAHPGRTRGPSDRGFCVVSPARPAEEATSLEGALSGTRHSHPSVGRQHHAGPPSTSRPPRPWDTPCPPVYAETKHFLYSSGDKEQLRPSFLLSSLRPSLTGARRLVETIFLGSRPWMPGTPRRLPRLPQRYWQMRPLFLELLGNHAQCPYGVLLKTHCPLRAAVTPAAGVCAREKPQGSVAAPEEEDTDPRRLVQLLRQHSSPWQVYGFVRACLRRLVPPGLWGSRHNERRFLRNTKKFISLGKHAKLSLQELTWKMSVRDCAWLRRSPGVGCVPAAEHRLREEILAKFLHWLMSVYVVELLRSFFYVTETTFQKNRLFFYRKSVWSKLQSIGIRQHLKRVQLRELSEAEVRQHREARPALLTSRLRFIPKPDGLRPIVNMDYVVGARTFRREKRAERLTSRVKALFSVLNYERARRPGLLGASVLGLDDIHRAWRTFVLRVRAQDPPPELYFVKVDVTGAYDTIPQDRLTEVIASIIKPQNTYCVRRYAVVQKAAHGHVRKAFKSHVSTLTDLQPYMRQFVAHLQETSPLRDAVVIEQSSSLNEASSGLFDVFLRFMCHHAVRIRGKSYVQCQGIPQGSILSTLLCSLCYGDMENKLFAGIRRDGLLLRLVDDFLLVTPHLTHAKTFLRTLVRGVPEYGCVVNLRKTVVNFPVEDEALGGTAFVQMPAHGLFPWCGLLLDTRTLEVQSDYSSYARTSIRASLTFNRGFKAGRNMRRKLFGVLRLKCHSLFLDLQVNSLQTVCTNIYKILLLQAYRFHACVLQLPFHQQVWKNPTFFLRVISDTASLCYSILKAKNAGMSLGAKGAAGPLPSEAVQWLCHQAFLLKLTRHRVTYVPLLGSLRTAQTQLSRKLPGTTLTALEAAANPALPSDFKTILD

In general, IC50 refers to the concentration at which inhibition is half-maximal. Lower therefore signals greater potency. Consider `CN(C)CCCNCc1ccc2nc3ccc4cc5cc(CNCCCN(C)C)ccc5nc4c3cc2c1`, for which the IC50 was 28.2 nM.

With `CSc1nc(Nc2ccc3nc(C)cc(N(C)C)c3c2)nc(Nc2ccc3nc(C)cc(N(C)C)c3c2)n1`, the IC50 was found to be 40.8 nM.

With `CC1=C2NC(=C3CSC(=N3)c3coc(n3)-c3coc(n3)-c3coc(n3)-c3coc(n3)-c3coc(n3)-c3nc2oc3C)O1` [telomestatin], it took 5.01 nM to reach half-maximal inhibition (IC50).

(Values after BindingDB's records for doi:10.1007/s00044-011-9594-4 (n/a, 2012).)
